Measured values reported in patent US20110251135A1, “INHIBITORS OF PERITONEAL SEEDING OF CANCER CELLS” (University of Utah Research Foundation, priority 2008, published 2011).
“Also recorded” adds a separate entry of the source.

Columns and labels:
FLIP = FLIP immunoblot in HT-29 cells; assay type: cell-based, human
Procedure: (§1) The data points represent the means of triplicate experiments and the error bars the standard errors of the means. […] The percent of apoptotic cells was then determined by the annexin V assay. […] The results shown are typical of two separate experiments. […] Immunoblots were performed for c-IAP-2, TRAF-1, TRAF-2, and FLIP. All lanes contain equal total protein.
The cells were washed twice in ice cold PBS and then lysed in 4° C. lysis buffer (50 mM HEPES, 150 mM NaCl, 1.5 mM MgCl2, 1 mM EGTA, 100 mM NaF, 10 mM Na2PO4, 1 mM Na3VO4, 10% glycerol, 1% TRITON™ X-100, and 1 μg/mL each of aprotinin, leupeptin, chymostatin, pepstatin) and clarified at 12,000 rpm at 4° C. for 15 minutes. The lysates were normalized for total protein concentration. […]
For immunodetection, the blocked blots were probed with primary antibody for 2 hours at 4° C. on a rocker. […] Alkaline phosphatase was detected by a colorimetric reaction using a BCIP (5-bromo-4-chloro-3-indolyl phosphate)/NBT (nitroblue tetrazolium) kit (Zymed).
Since HCT-116 colon cancer cells have relatively low levels of FLIP compared with other cancer cell lines (FIG. 13A), they were transfected with human c-FLIP. HCT-116 cells that were transfected with human c-FLIP or empty vector were transiently suspended and allowed to readhere in the presence of BAY 11-7085 for 8 hours. […]

[1] = tested on: DLD-1, HCT-116, HT-29 colon cancer cell lines; test: Cell proliferation assay (crystal violet, 96-well); assay type: cell-based, human; settings: 10 μM, cultured up to 8 days
Procedure: as §1
For the cell proliferation assay, cells were dispersed and plated at 40,000 cells/well in 96-well dishes. At various days in culture, the cells were gently washed twice with 100 μL/well of ice-cold blocking buffer (1% radioimmunoassay grade BSA in PBS) and twice with 100 μL/well of ice-cold PBS. The cells were fixed for 10 min in 100% ice-cold methanol (100 μL/well), then allowed to air-dry. The cells were stained with 100 μL/well of 0.1% crystal violet in H20 for 10 minutes, then washed gently four times with dd H20 and four times with PBS. The plates were then air-dried completely. The stained cells were then solubilized in 1% sodium deoxycholate, and the plates read at 590 nm in a spectrophotometer. The absorption at 590 nm is proportional to the number of attached cells.

[2] = athymic mice; BAY 11-7085 5 mg/kg IP, 4 doses total
[3] = tested on: IκB phosphorylation and TNFα-induced NF-κB activation; settings: Pierce et al., J Biol Chem 272:21096-103, 1997; cited from earlier work
adherent HT-29 cells = test: Annexin V-FITC apoptosis assay, adherent cells; assay type: cell-based, human
Source text: FIG. 3 is a group of graphs that show NF-κB inhibitors cause apoptosis of colon cancer cells. […] The data points represent the average percent of annexin V-positive, propidium iodide-negative cells (of the total cells counted) from triplicate experiments. The error bars represent the standard error of the means. […] The results shown are a graphic representation of individual flow cytometry results expressed as the percentage of cells that were annexin V-positive of those that excluded propidium iodide. […] An immunoblot of the lysates for cleaved PARP was performed. Each lane represents equal total protein concentrations. […] The cells were allowed to adhere to plastic dishes for 1 hour after which they were washed gently in PBS and stained with crystal violet. The crystal violet stained cells were solubilized in deoxycholate and the absorbance detected in a spectrophotometer at 590 nm. The adherent cells were expressed as a fraction of the controls. Each data point represents the average of triplicate experiments and the error bars the standard errors of the means.
as §1
Single cell suspensions were plated at 100,000 cells per well in 24-well plates in media containing DMSO, BAY 11-7082, BAY 11-7085, or MG-132 for 8-24 hours in an incubator. Alternatively, DMSO, BAY 11-7082, BAY 11-7085, or MG-132 were added to cells that were confluent and adherent for several days. The nonadherent cells were aspirated off with the media and spun for 3 minutes at 2,000 rpm in 15 mL polypropylene tubes. The adherent cells were washed twice with PBS, dispersed in trypsin, and spun down for 3 minutes at 2,000 rpm in 15 mL polypropylene tubes. The nonadherent and adherent cells were resuspended in 1× binding buffer (10 mM HEPES/NaOH, pH 7.4, 140 mM NaCl, and 2.5 mM CaCl2) to a final concentration of 10^6 cells/mL. 100 μL of the cell solution were transferred to a 5 mL culture tube and incubated with 5 μL of annexin V-FITC-conjugated monoclonal antibody (Pharmingen) and 10 μl, of propidium iodide (from a 50 μg/mL stock solution made in PBS) in the dark at 25° C. for 15 minutes. 400 μL of binding buffer was added to each tube and the cells were analyzed by flow cytometry immediately. The percent of apoptosis was determined as the percent of annexin V-positive, propidium iodide-negative cells of the total cells counted.

CC(C)(C)c1ccc(S(=O)(=O)/C=C/C#N)cc1 [BAY 11-7085, (2E)-3-[4-(tertiarybutylphenyl)sulfonyl]-2-propenenitrile]
expression of the 54 kilodalton (long) isoform of FLIP (FLIP; adherent HT-29, 20 μM): only a slight diminution | FLIP expression in readhering HT-29 cells (FLIP; readhering HT-29, 3 hours): caused the down-regulation of FLIP after only 3 hours | cell proliferation [1]: greatly inhibited cell proliferation | deaths / overt signs of toxicity [2]: None of the mice died or showed overt signs of toxicity | IκB phosphorylation and TNFα-induced NF-κB activation [3]: inhibit IκB phosphorylation and TNFα-induced NF-κB activation | apoptotic cells among cells that remained adherent (adherent HT-29 cells; HT-29 treated with increasing concentrations of BAY 11-7085, adherent fraction): only a minority of the adherent cells was apoptotic | apoptotic cells among cells that became nonadherent (adherent HT-29 cells; HT-29 treated with increasing concentrations of BAY 11-7085, nonadherent fraction): the majority of nonadherent cells were apoptotic; also recorded: predominantly apoptotic | level of apoptosis (annexin V-positive, propidium iodide-negative cells) (adherent HT-29 cells; adherent HT-29, 24 hours, BAY compounds at doses up to 20, MG-132 20 μM): relatively greater for MG-132 than BAY 11-7085; also recorded: caused an increase in the level of apoptosis | apoptosis of adherent HT-29 cell monolayers (adherent HT-29 cells; even the highest doses (10-100 μM), compared with transiently suspended cells): only a relatively small degree of apoptosis
